Consider 19 molecules from PubChem BioAssay AID256 (DTP/NCI, 2004).

Each structure is given as a SMILES string. “And” between values parts separate entries of the source, which are not always exact repeats. Identical values can stand only once. Toxic doses and inconclusive results are not listed.

The test system of the assay is CD2F1 mice, L1210 leukemia ip, survival T/C. The assay is described as follows: NCI In Vivo Anticancer Drug Screen. Data for tumor model L1210 Leukemia (intraperitoneal) in CD2F1 (CDF1) mice. The conditions noted are these: higher = longer survival. The method, boiled down: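 In this screen, transplantable tumors were grown in mice given either the compound or its vehicle. Results were expressed as the treated measurement relative to the control measurement.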

Setting [1] is: endpoint: mean survival time, dose: 100.0 mg/kg/injection, schedule: Q01DX001 (ip), vehicle: saline.
Where [2] appears, read: endpoint: mean survival time, dose: 200.0 mg/kg/injection, schedule: Q01DX001 (ip), vehicle: saline.
The mark [3] stands for this setting: endpoint: mean survival time, dose: 100.0 mg/kg/injection, schedule: Q01DX001 (ip), vehicle: saline with Tween-80.
Where [4] appears, read: endpoint: mean survival time, dose: 200.0 mg/kg/injection, schedule: Q01DX001 (ip), vehicle: saline with Tween-80.
Setting [5] is: endpoint: mean survival time, dose: 400.0 mg/kg/injection, schedule: Q01DX001 (ip), vehicle: saline with Tween-80.

Take `CCOC(=O)Nc1cc(F)ccc1F`: the T/C was 103 % of control (endpoint: mean survival time, dose: 100.0 mg/kg/injection, schedule: Q01DX009 (ip), vehicle: other); 94 % of control (endpoint: mean survival time, dose: 200.0 mg/kg/injection, schedule: Q01DX009 (ip), vehicle: other); 95 % of control (endpoint: mean survival time, dose: 400.0 mg/kg/injection, schedule: Q01DX009 (ip), vehicle: other).

As to `O=C1C=C/C(=N\N=C2/C=CC(=O)O2)O1`, the T/C was 100 % of control (endpoint: mean survival time, dose: 25.0 mg/kg/injection, schedule: Q04DX002 (ip), vehicle: saline with Tween-80) and 91 % of control (endpoint: mean survival time, dose: 50.0 mg/kg/injection, schedule: Q04DX002 (ip), vehicle: saline with Tween-80).

Take `O=C(CBr)c1cc(-c2ccccc2)nc2c(Cl)cc(Cl)cc12`: the T/C reads like this: under setting [1], 100 % of control; under setting [2], 103 % of control; (endpoint: mean survival time, dose: 400.0 mg/kg/injection, schedule: Q01DX001 (ip), vehicle: saline) 97 % of control.

On to `COc1ccc2ccccc2c1C1NC(=O)c2ccccc2N1` (stereo not given), for which the T/C (endpoint: mean survival time, dose: 12.5 mg/kg/injection, schedule: Q01DX009 (ip), vehicle: Klucel (hydroxypropylcellulose) (HPC)) was 95 % of control and 102 % of control; the T/C (endpoint: mean survival time, dose: 25.0 mg/kg/injection, schedule: Q01DX009 (ip), vehicle: Klucel (hydroxypropylcellulose) (HPC)) was 101 % of control and 102 % of control; the T/C (endpoint: mean survival time, dose: 50.0 mg/kg/injection, schedule: Q01DX009 (ip), vehicle: Klucel (hydroxypropylcellulose) (HPC)) is 105 % of control and 107 % of control; the T/C (endpoint: mean survival time, dose: 100.0 mg/kg/injection, schedule: Q01DX009 (ip), vehicle: Klucel (hydroxypropylcellulose) (HPC)) is 101 % of control and 104 % of control; the T/C (endpoint: mean survival time, dose: 200.0 mg/kg/injection, schedule: Q01DX009 (ip), vehicle: Klucel (hydroxypropylcellulose) (HPC)) is 104 % of control and 105 % of control; the T/C (endpoint: mean survival time, dose: 400.0 mg/kg/injection, schedule: Q01DX009 (ip), vehicle: Klucel (hydroxypropylcellulose) (HPC)) is 119 % of control and 96 % of control.

For the molecule `CN1CCN(c2ccccc2)CC1`, the T/C under setting [1] was 112 % of control.

On to `CCCCCCCCCC[n+]1ccc(C#N)cc1`, for which the T/C is 101 % of control (endpoint: mean survival time, dose: 9.38 mg/kg/injection, schedule: Q01DX001 (ip), vehicle: saline) and 103 % of control (endpoint: mean survival time, dose: 18.75 mg/kg/injection, schedule: Q01DX001 (ip), vehicle: saline).

As for `Cc1ccc(NC(=O)Oc2ccc(F)cc2Cl)cc1NC(=O)Oc1ccc(F)cc1Cl`, the T/C by setting is: under setting [3], 103 % of control; under setting [4], 101 % of control; under setting [5], 95 % of control.

As to `CC(O)CN1CCN(CC(C)O)CC1.[I][Pt+2][I]` (stereo not given), the T/C (endpoint: mean survival time, dose: 25.0 mg/kg/injection, schedule: Q04DX003 (ip), vehicle: saline with Tween-80) is 102 % of control; the T/C (endpoint: mean survival time, dose: 50.0 mg/kg/injection, schedule: Q04DX003 (ip), vehicle: saline with Tween-80) was 109 % of control; the T/C (endpoint: mean survival time, dose: 100.0 mg/kg/injection, schedule: Q04DX003 (ip), vehicle: saline with Tween-80) is 95 % of control; the T/C (endpoint: mean survival time, dose: 200.0 mg/kg/injection, schedule: Q04DX003 (ip), vehicle: saline with Tween-80) was 104 % of control; the T/C (endpoint: mean survival time, dose: 400.0 mg/kg/injection, schedule: Q04DX003 (ip), vehicle: saline with Tween-80) is 100 % of control.

Turning to `CNC(=O)Nc1cc(OC)ccc1OC`, the T/C by setting is: under setting [3], 106 % of control; under setting [4], 106 % of control; under setting [5], 102 % of control.

Take `OC1(C2(O)CCCC2)CCCC1`: the T/C (endpoint: mean survival time, dose: 100.0 mg/kg/injection, schedule: Q01DX009 (ip), vehicle: saline with Tween-80) was 105 % of control; the T/C (endpoint: mean survival time, dose: 200.0 mg/kg/injection, schedule: Q01DX009 (ip), vehicle: saline with Tween-80) is 111 % of control; the T/C (endpoint: mean survival time, dose: 400.0 mg/kg/injection, schedule: Q01DX009 (ip), vehicle: saline with Tween-80) was 103 % of control.

Turning to `COc1cccc2c1C(=O)C1=C(C2=O)c2c(O)cc(CO)cc2C(O)C1O` (stereo not given), the T/C runs as follows: (endpoint: median survival time, dose: 3.12 mg/kg/injection, schedule: Q01DX005 (ip), vehicle: other) 101 % of control; (endpoint: median survival time, dose: 6.25 mg/kg/injection, schedule: Q01DX005 (ip), vehicle: other) 105 % of control; (endpoint: median survival time, dose: 12.5 mg/kg/injection, schedule: Q01DX005 (ip), vehicle: other) 103 % of control; (endpoint: median survival time, dose: 25.0 mg/kg/injection, schedule: Q01DX005 (ip), vehicle: other) 109 % of control; (endpoint: median survival time, dose: 50.0 mg/kg/injection, schedule: Q01DX005 (ip), vehicle: other) 119 % of control.

Consider `CC(=O)Nc1nn(C)c(C#N)c1C#N`, for which the T/C is 106 % of control (endpoint: mean survival time, dose: 37.5 mg/kg/injection, schedule: Q04DX002 (ip), vehicle: saline with Tween-80); 106 % of control (endpoint: mean survival time, dose: 75.0 mg/kg/injection, schedule: Q04DX002 (ip), vehicle: saline with Tween-80); 102 % of control (endpoint: mean survival time, dose: 150.0 mg/kg/injection, schedule: Q04DX002 (ip), vehicle: saline with Tween-80).

Consider `NC1=NC(=O)CC(=O)N1`, for which the T/C under setting [3] is 102 % of control and the T/C under setting [4] is 103 % of control.

As to `CC(=O)OCc1cc(C(C)(C)C)c(O)c(C(C)(C)C)c1`, the T/C is 101 % of control (endpoint: mean survival time, dose: 100.0 mg/kg/injection, schedule: Q04DX003 (ip), vehicle: Klucel (hydroxypropylcellulose) (HPC)); 116 % of control (endpoint: mean survival time, dose: 200.0 mg/kg/injection, schedule: Q04DX003 (ip), vehicle: Klucel (hydroxypropylcellulose) (HPC)); 115 % of control (endpoint: mean survival time, dose: 400.0 mg/kg/injection, schedule: Q04DX003 (ip), vehicle: Klucel (hydroxypropylcellulose) (HPC)).

Turning to `O=C(c1ccccc1)C1CC1C(=O)c1ccccc1` (stereo not given), the T/C is, setting by setting: (endpoint: mean survival time, dose: 100.0 mg/kg/injection, schedule: Q04DX002 (ip), vehicle: saline with Tween-80) 100 % of control; (endpoint: mean survival time, dose: 200.0 mg/kg/injection, schedule: Q04DX002 (ip), vehicle: saline with Tween-80) 112 % of control; (endpoint: mean survival time, dose: 400.0 mg/kg/injection, schedule: Q04DX002 (ip), vehicle: saline with Tween-80) 100 % of control.

Take `O=NN(CCCl)C(=O)Oc1cc(Cl)c(Cl)cc1Cl`: the T/C was 106 % of control (endpoint: median survival time, dose: 6.0 mg/kg/injection, schedule: Q01DX009 (ip), vehicle: Klucel (hydroxypropylcellulose) (HPC)); 124 % of control (endpoint: median survival time, dose: 12.0 mg/kg/injection, schedule: Q01DX009 (ip), vehicle: Klucel (hydroxypropylcellulose) (HPC)); 109 % of control (endpoint: median survival time, dose: 12.5 mg/kg/injection, schedule: Q01DX009 (ip), vehicle: Klucel (hydroxypropylcellulose) (HPC)); 195 % of control (endpoint: median survival time, dose: 50.0 mg/kg/injection, schedule: Q01DX009 (ip), vehicle: Klucel (hydroxypropylcellulose) (HPC)).

Regarding `ClCCCCC(Cl)(Cl)Cl`, the T/C reads like this: (endpoint: mean survival time, dose: 100.0 mg/kg/injection, schedule: Q01DX001 (ip), vehicle: Klucel (hydroxypropylcellulose) (HPC)) 101 % of control; (endpoint: mean survival time, dose: 200.0 mg/kg/injection, schedule: Q01DX001 (ip), vehicle: Klucel (hydroxypropylcellulose) (HPC)) 98 % of control; (endpoint: mean survival time, dose: 400.0 mg/kg/injection, schedule: Q01DX001 (ip), vehicle: Klucel (hydroxypropylcellulose) (HPC)) 93 % of control.

As for `CNC(=S)SC`, the T/C was 98 % of control (endpoint: mean survival time, dose: 50.0 mg/kg/injection, schedule: Q01DX001 (ip), vehicle: saline); 102 % of control under setting [1]; 104 % of control under setting [2].

For `C=C1C=CC1=O`, the T/C by setting is: (endpoint: mean survival time, dose: 1.0 micrograms/kg/injection, schedule: Q01DX009 (ip), vehicle: olive oil, sesame oil, peanut oil) 97 % of control; (endpoint: mean survival time, dose: 1.0 micrograms/kg/injection, schedule: Q01DX009 (ip), vehicle: other) 102 % of control; (endpoint: mean survival time, dose: 6.0 micrograms/kg/injection, schedule: Q01DX009 (ip), vehicle: olive oil, sesame oil, peanut oil) 97 % of control; (endpoint: mean survival time, dose: 6.0 micrograms/kg/injection, schedule: Q01DX009 (ip), vehicle: other) 103 % of control; (endpoint: mean survival time, dose: 10.0 micrograms/kg/injection, schedule: Q01DX009 (ip), vehicle: olive oil, sesame oil, peanut oil) 94 % of control; (endpoint: mean survival time, dose: 10.0 micrograms/kg/injection, schedule: Q01DX009 (ip), vehicle: other) 101 % of control. Besides, the T/C is 96 % of control (endpoint: mean survival time, dose: 60.0 micrograms/kg/injection, schedule: Q01DX009 (ip), vehicle: olive oil, sesame oil, peanut oil); 104 % of control (endpoint: mean survival time, dose: 60.0 micrograms/kg/injection, schedule: Q01DX009 (ip), vehicle: other); 101 % of control (endpoint: mean survival time, dose: 100.0 micrograms/kg/injection, schedule: Q01DX006 (ip), vehicle: other); 97 % of control (endpoint: mean survival time, dose: 100.0 micrograms/kg/injection, schedule: Q01DX009 (ip), vehicle: olive oil, sesame oil, peanut oil); 100 % of control (endpoint: mean survival time, dose: 100.0 micrograms/kg/injection, schedule: Q01DX009 (ip), vehicle: other); 91 % of control (endpoint: mean survival time, dose: 600.0 micrograms/kg/injection, schedule: Q01DX009 (ip), vehicle: olive oil, sesame oil, peanut oil). Where the note is “endpoint: mean survival time, dose: 1000.0 micrograms/kg/injection, schedule: Q01DX009 (ip), vehicle: olive oil, sesame oil, peanut oil”, the T/C is 96 % of control.
